Reference: patent publication US10294202B2, “Pyrrolidinones as herbicides” (FMC Corporation, priority 2013, dated 2019)

How the values were obtained:
sedge, umbrella = assay: Test B flooded paddy test; type: in vivo, Cyperus difformis; conditions: 500 g ai/ha, Flood; scale of 0 to 100 where 0 is no effect and 100 is complete control
Outline: (§1)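 Plants grown to 2-leaf stage; pots flooded 3 cm above soil and compound applied directly into paddy water, depth held throughout. Visual rating against untreated controls after 13 to 15 days in greenhouse, 0 (no effect) to 100 (complete control).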

ryegrass, Italian = assay: Test A pre-/postemergence herbicide test; type: in vivo, Lolium multiflorum
Outline: (§2)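 Greenhouse pot test with pre- and postemergence application of surfactant-containing solvent formulations. Postemergence plants were 2–10 cm, one- to two-leaf stage. Response scored visually after ~10 days, 0 (no effect) to 100 (complete control).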

rice = assay: Test B flooded paddy test; type: in vivo, Oryza sativa; conditions: 500 g ai/ha, Flood; scale of 0 to 100 where 0 is no effect and 100 is complete control
Outline: as §1

wheat = assay: Test A pre-/postemergence herbicide test; type: in vivo, Triticum aestivum; conditions: Postemergence
Outline: as §2

kochia = assay: Test A pre-/postemergence herbicide test; type: in vivo, Kochia scoparia
Outline: as §2

corn = assay: Test A pre-/postemergence herbicide test; type: in vivo, Zea mays; conditions: Postemergence
Outline: as §2

pigweed = assay: Test A pre-/postemergence herbicide test; type: in vivo, Amaranthus retroflexus
Outline: as §2

blackgrass = assay: Test A postemergence herbicide test; type: in vivo, Alopecurus myosuroides
Outline: (§3)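 Blackgrass and galium grown in pots of loam soil–sand blend, treated postemergence at 2–10 cm height, one- to two-leaf stage. Plants kept in greenhouse ~10 days, then visually rated for injury against untreated controls on a 0–100 scale (0 no effect, 100 complete control).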

giant foxtail = assay: Test A pre-/postemergence herbicide test; type: in vivo, Setaria faberii
Outline: as §2

barnyardgrass [1] = assay: Test A pre-/postemergence herbicide test; type: in vivo, Echinochloa crus-galli
Outline: as §2

galium = assay: Test A postemergence herbicide test; type: in vivo, Galium aparine
Outline: as §3

barnyardgrass [2] = assay: Test B flooded paddy test; type: in vivo, Echinochloa crus-galli; conditions: 500 g ai/ha, Flood; scale of 0 to 100 where 0 is no effect and 100 is complete control
Outline: as §1

ragweed = assay: Test A pre-/postemergence herbicide test; type: in vivo, Ambrosia elatior
Outline: as §2

ducksalad = assay: Test B flooded paddy test; type: in vivo, Heteranthera limosa; conditions: 500 g ai/ha, Flood; scale of 0 to 100 where 0 is no effect and 100 is complete control
Outline: as §1

[3] = Postemergence, 125 g ai/ha, visual rating on 0 to 100 scale (0 no effect, 100 complete control), approx. 10 days
[4] = Postemergence, 500 g ai/ha, 0 to 100 scale (0 no effect, 100 complete control)
[5] = Preemergence, 125 g ai/ha, 0 to 100 scale where 0 is no effect and 100 is complete control
[6] = Preemergence, 500 g ai/ha, visual rating on 0 to 100 scale (0 no effect, 100 complete control)
[7] = 125 g ai/ha, visual rating on 0 to 100 scale (0 no effect, 100 complete control), approx. 10 days
[8] = 500 g ai/ha, 0 to 100 scale (0 no effect, 100 complete control)
[9] = preemergence, 500 g ai/ha, 0 to 100 scale, 0 is no effect and 100 is complete control
[10] = 125 g ai/ha, visual rating, 0 to 100 scale, 0 no effect, 100 complete control, approximately 10 days, preemergence
[11] = Postemergence, 125 g ai/ha, 0 to 100 scale, 0 no effect, 100 complete control
[12] = preemergence, 500 g ai/ha, 0 to 100 scale
[13] = 125 g ai/ha, 0 to 100 scale, 0 no effect, 100 complete control
[14] = preemergence, 500 g ai/ha, 0 to 100 scale (0 no effect, 100 complete control)

SMILES: O=C1NCC(c2ccc(Cl)o2)C1C(=O)Nc1cccc(F)c1F (stereo not drawn) [Compound 285]
- Plant response rating, Sedge, Umbrella (sedge, umbrella): 0
- Plant response rating, Ryegrass, Italian (ryegrass, Italian; [3]): 0
- Plant response rating, Ryegrass, Italian (ryegrass, Italian; [4]): 0
- Plant response rating, Ryegrass, Italian (ryegrass, Italian; [5]): 0
- Ryegrass, Italian plant response rating (ryegrass, Italian; [6]): 0
- Plant response rating, Rice (rice): 0
- Plant response rating, Wheat (wheat; [7]): 0
- Plant response rating, Wheat (wheat; [8]): 0
- Plant response rating, Kochia (kochia; [3]): 0
- Plant response rating, Kochia (kochia; [4]): 0
- Plant response rating, Kochia (kochia; [5]): 0
- Plant response rating, Kochia (kochia; [9]): 0
- Plant response rating, Corn (corn; [7]): 0
- Plant response rating, Corn (corn; [8]): 0
- Plant response rating, Pigweed (pigweed; [3]): 0
- Plant response rating, Pigweed (pigweed; [4]): 0
- Plant response rating, Pigweed (pigweed; [5]): 0
- Plant response rating, Pigweed (pigweed; [9]): 0
- Plant response rating, Blackgrass (blackgrass; [7]): 0
- Plant response rating, Blackgrass (blackgrass; [8]): 0
- Plant response rating, Foxtail, Giant (giant foxtail; [3]): 0
- Plant response rating, Foxtail, Giant (giant foxtail; [4]): 0
- Plant response rating, Foxtail, Giant (giant foxtail; [5]): 0
- Plant response rating, Foxtail, Giant (giant foxtail; [9]): 10
- Plant response rating, Barnyardgrass (barnyardgrass [1]; [3]): 20
- Plant response rating, Barnyardgrass (barnyardgrass [1]; [4]): 70
- Plant response rating, Barnyardgrass (barnyardgrass [1]; [5]): 0
- Plant response rating, Barnyardgrass (barnyardgrass [1]; [9]): 0
- Plant response rating, Galium (galium; [7]): 0
- Plant response rating, Galium (galium; [8]): 0
- Plant response rating, Barnyardgrass (barnyardgrass [2]): 20
- Plant response rating, Ragweed (ragweed; [3]): 0
- Plant response rating, Ragweed (ragweed; [4]): 0
- Plant response rating, Ragweed (ragweed; [5]): 0
- Plant response rating, Ragweed (ragweed; [9]): 0
- Plant response rating, Ducksalad (ducksalad): 100

SMILES: Cc1cc(C2CNC(=O)C2C(=O)Nc2cccc(F)c2F)ccc1F (racemic) [Compound 141]
- Plant response rating, Sedge, Umbrella (sedge, umbrella): 0
- Plant response rating, Ryegrass, Italian (ryegrass, Italian; [10]): 0
- Plant response rating, Ryegrass, Italian (ryegrass, Italian; [11]): 0
- Ryegrass, Italian plant response rating (0 to 100 scale, 0 is no effect, 100 is complete control) (ryegrass, Italian; Postemergence, 500 g ai/ha): 40
- Plant response rating, Ryegrass, Italian (ryegrass, Italian; [12]): 20
- Plant response rating, Rice (rice): 0
- Plant response rating, Wheat (wheat; [13]): 0
- Wheat plant response rating (0 to 100 scale, 0 is no effect, 100 is complete control) (wheat; 500 g ai/ha): 30
- Plant response rating, Kochia (kochia; [10]): 0
- Plant response rating, Kochia (kochia; [11]): 0
- Kochia plant response rating (0 to 100 scale, 0 is no effect, 100 is complete control) (kochia; Postemergence, 500 g ai/ha): 20
- Plant response rating, Kochia (kochia; [12]): 20
- Plant response rating, Corn (corn; [13]): 0
- Corn plant response rating (0 to 100 scale, 0 is no effect, 100 is complete control) (corn; 500 g ai/ha): 50
- Plant response rating, Pigweed (pigweed; [10]): 0
- Plant response rating, Pigweed (pigweed; [11]): 0
- Pigweed plant response rating (0 to 100 scale, 0 is no effect, 100 is complete control) (pigweed; Postemergence, 500 g ai/ha): 0
- Plant response rating, Pigweed (pigweed; [12]): 0
- Plant response rating, Blackgrass (blackgrass; [13]): 0
- Blackgrass plant response rating (0 to 100 scale, 0 is no effect, 100 is complete control) (blackgrass; 500 g ai/ha): 50
- Plant response rating, Foxtail, Giant (giant foxtail; [10]): 50
- Plant response rating, Foxtail, Giant (giant foxtail; [11]): 0
- Foxtail, Giant plant response rating (0 to 100 scale, 0 is no effect, 100 is complete control) (giant foxtail; Postemergence, 500 g ai/ha): 50
- Plant response rating, Foxtail, Giant (giant foxtail; [12]): 90
- Plant response rating, Barnyardgrass (barnyardgrass [1]; [10]): 90
- Plant response rating, Barnyardgrass (barnyardgrass [1]; [11]): 80
- Barnyardgrass plant response rating (0 to 100 scale, 0 is no effect, 100 is complete control) (barnyardgrass [1]; Postemergence, 500 g ai/ha): 90
- Plant response rating, Barnyardgrass (barnyardgrass [1]; [14]): 90
- Plant response rating, Galium (galium; [13]): 20
- Galium plant response rating (0 to 100 scale, 0 is no effect, 100 is complete control) (galium; 500 g ai/ha): 50
- Plant response rating, Barnyardgrass (barnyardgrass [2]): 50
- Plant response rating, Ragweed (ragweed; [10]): 0
- Plant response rating, Ragweed (ragweed; [11]): 0
- Ragweed plant response rating (0 to 100 scale, 0 is no effect, 100 is complete control) (ragweed; Postemergence, 500 g ai/ha): 40
- Plant response rating, Ragweed (ragweed; [12]): 0
- Plant response rating, Ducksalad (ducksalad): 100

SMILES: COc1cc(C2CNC(=O)C2C(=O)Nc2ccc(F)cc2F)ccc1F (racemic) [Compound 131]
- Plant response rating, Sedge, Umbrella (sedge, umbrella): 30
- Plant response rating, Ryegrass, Italian (ryegrass, Italian; [10]): 0
- Plant response rating, Ryegrass, Italian (ryegrass, Italian; [11]): 0
- Ryegrass, Italian plant response rating (0 to 100 scale, 0 is no effect, 100 is complete control) (ryegrass, Italian; Postemergence, 500 g ai/ha): 0
- Plant response rating, Ryegrass, Italian (ryegrass, Italian; [12]): 0
- Plant response rating, Rice (rice): 0
- Plant response rating, Wheat (wheat; [13]): 0
- Wheat plant response rating (0 to 100 scale, 0 is no effect, 100 is complete control) (wheat; 500 g ai/ha): 0
- Plant response rating, Kochia (kochia; [10]): 0
- Plant response rating, Kochia (kochia; [11]): 0
- Kochia plant response rating (0 to 100 scale, 0 is no effect, 100 is complete control) (kochia; Postemergence, 500 g ai/ha): 0
- Plant response rating, Kochia (kochia; [12]): 0
- Plant response rating, Corn (corn; [13]): 0
- Corn plant response rating (0 to 100 scale, 0 is no effect, 100 is complete control) (corn; 500 g ai/ha): 0
- Plant response rating, Pigweed (pigweed; [10]): 0
- Plant response rating, Pigweed (pigweed; [11]): 0
- Pigweed plant response rating (0 to 100 scale, 0 is no effect, 100 is complete control) (pigweed; Postemergence, 500 g ai/ha): 0
- Plant response rating, Pigweed (pigweed; [12]): 0
- Plant response rating, Blackgrass (blackgrass; [13]): 0
- Blackgrass plant response rating (0 to 100 scale, 0 is no effect, 100 is complete control) (blackgrass; 500 g ai/ha): 0
- Plant response rating, Foxtail, Giant (giant foxtail; [10]): 50
- Plant response rating, Foxtail, Giant (giant foxtail; [11]): 50
- Foxtail, Giant plant response rating (0 to 100 scale, 0 is no effect, 100 is complete control) (giant foxtail; Postemergence, 500 g ai/ha): 50
- Plant response rating, Foxtail, Giant (giant foxtail; [12]): 60
- Plant response rating, Barnyardgrass (barnyardgrass [1]; [10]): 50
- Plant response rating, Barnyardgrass (barnyardgrass [1]; [11]): 50
- Barnyardgrass plant response rating (0 to 100 scale, 0 is no effect, 100 is complete control) (barnyardgrass [1]; Postemergence, 500 g ai/ha): 60
- Plant response rating, Barnyardgrass (barnyardgrass [1]; [14]): 60
- Plant response rating, Galium (galium; [13]): 0
- Galium plant response rating (0 to 100 scale, 0 is no effect, 100 is complete control) (galium; 500 g ai/ha): 0
- Plant response rating, Barnyardgrass (barnyardgrass [2]): 40
- Plant response rating, Ragweed (ragweed; [10]): 0
- Plant response rating, Ragweed (ragweed; [11]): 0
- Ragweed plant response rating (0 to 100 scale, 0 is no effect, 100 is complete control) (ragweed; Postemergence, 500 g ai/ha): 0
- Plant response rating, Ragweed (ragweed; [12]): 0
- Plant response rating, Ducksalad (ducksalad): 70

SMILES: O=C1NCC(c2ccc(SC(F)(F)F)cc2)C1C(=O)Nc1ccc(F)c(F)c1F (stereo not drawn) [Compound 322]
- Plant response rating, Sedge, Umbrella (sedge, umbrella): 0
- Plant response rating, Ryegrass, Italian (ryegrass, Italian; [3]): 0
- Plant response rating, Ryegrass, Italian (ryegrass, Italian; [4]): 0
- Plant response rating, Ryegrass, Italian (ryegrass, Italian; [5]): 0
- Ryegrass, Italian plant response rating (ryegrass, Italian; [6]): 0
- Plant response rating, Rice (rice): 0
- Plant response rating, Wheat (wheat; [7]): 0
- Plant response rating, Wheat (wheat; [8]): 0
- Plant response rating, Kochia (kochia; [3]): 0
- Plant response rating, Kochia (kochia; [4]): 0
- Plant response rating, Kochia (kochia; [5]): 0
- Kochia plant response rating (kochia; [6]): 0
- Plant response rating, Corn (corn; [7]): 0
- Plant response rating, Corn (corn; [8]): 20
- Plant response rating, Pigweed (pigweed; [3]): 0
- Plant response rating, Pigweed (pigweed; [4]): 0
- Plant response rating, Pigweed (pigweed; [5]): 0
- Pigweed plant response rating (pigweed; [6]): 0
- Plant response rating, Blackgrass (blackgrass; [7]): 0
- Plant response rating, Blackgrass (blackgrass; [8]): 0
- Plant response rating, Foxtail, Giant (giant foxtail; [3]): 0
- Plant response rating, Foxtail, Giant (giant foxtail; [4]): 60
- Plant response rating, Foxtail, Giant (giant foxtail; [5]): 0
- Foxtail, Giant plant response rating (giant foxtail; [6]): 70
- Plant response rating, Barnyardgrass (barnyardgrass [1]; [3]): 0
- Plant response rating, Barnyardgrass (barnyardgrass [1]; [4]): 60
- Plant response rating, Barnyardgrass (barnyardgrass [1]; [5]): 0
- Barnyardgrass plant response rating (barnyardgrass [1]; [6]): 40
- Plant response rating, Galium (galium; [7]): 0
- Plant response rating, Galium (galium; [8]): 0
- Plant response rating, Barnyardgrass (barnyardgrass [2]): 0
- Plant response rating, Ragweed (ragweed; [3]): 0
- Plant response rating, Ragweed (ragweed; [4]): 0
- Plant response rating, Ragweed (ragweed; [5]): 0
- Ragweed plant response rating (ragweed; [6]): 0
- Plant response rating, Ducksalad (ducksalad): 100
